Results on 26 compounds are retold here after US20070198063A1, “Electrical devices and anti-scarring drug combinations” (priority 2005, published 2007).

≈ marks a conversion by molar mass, not a printed value.

One data set concerns C. glabrata. To be noted: manganese compound as enhancer; cited from earlier work.
For data set [1] the following is noted: solvent named in the value; cited from earlier work.
Data set [2] relates to P. aeruginosa PAE/K799 H187. As to the kind of experiment: MIC by microtitre broth dilution. The data set is classed as cell-based. To be noted: Pseudomonas aeruginosa; P. aeruginosa PAE/K799 H187 wt Gram−; Mueller Hinton broth, 37° C., 24 h; read-out: Minimum inhibitory concentration. On the procedure: (§1) MIC assays were conducted essentially as described by Amsterdam, D. 1996, “Susceptibility testing of antimicrobials in liquid media”, p. 52-11, in Loman, V., ed. Antibiotics in laboratory medicine, 4th ed. Williams and Wilkins, Baltimore, Md.
In general terms: Dilution methods test growth across graded concentrations, often in twofold steps.

For a further data set, the system named is S. aureus ATCC25923 C622. The data set is described as follows: MIC by microtitre broth dilution. It is filed as cell-based. The note with it: Staphylococcus aureus; S. aureus ATCC25923 C622 wt Gram+; Mueller Hinton broth, 37° C., 24 h; read-out: Minimum inhibitory concentration. As for the experimental part: as §1
Another data set relates to S. epidermidis C621. As to the kind of experiment: MIC by microtitre broth dilution. To be noted: Staphylococcus epidermidis; S. epidermidis C621 wt Gram+; Mueller Hinton broth, 37° C., 24 h; read-out: Minimum inhibitory concentration. It is filed as cell-based. As for the experimental part:
as §1

For the next data set, the system named is S. pyogenes C721. The data set is described as follows: MIC by microtitre broth dilution. The data set is classed as cell-based. The note with it: Streptococcus pyogenes; S. pyogenes C721 wt Gram+; Todd Hewitt broth, 37° C., 24 h; read-out: Minimum inhibitory concentration. As for the experimental part: as §1
The test system of a further data set is collagenase. The data set is classed as cell-based, calf. The note with it: primary chondrocytes, pre-incubation 6 hours, then IL-1 20 ng/ml 18 hours; 'as low as'. On the procedure: Primary chondrocyte cultures were freshly isolated from calf cartilage. The cells were plated at 2.5×10^6 per ml in 100×20 mm culture dishes and incubated in Ham's F12 medium containing 5% FBS overnight at 37° C. The cells were starved in serum-free medium overnight and then treated with anti-microtubule agents at various concentrations for 6 hours. IL-1 (20 ng/ml) was then added to each plate and the plates incubated for an additional 18 hours. Total RNA was isolated by the acidified guanidine isothiocyanate method and subjected to electrophoresis on a denatured gel. Denatured RNA samples (15 μg) were analyzed by gel electrophoresis in a 1% denatured gel, transferred to a nylon membrane and hybridized with the ^32P-labeled collagenase cDNA probe. ^32P-labeled glyceraldehyde phosphate […] (GAPDH) cDNA as an internal standard to ensure roughly equal loading. The exposed films were scanned and quantitatively analyzed with IMAGEQUANT.

The conditions of data set [3]: particularly in normal saline; cited from earlier work.
The test system of a further data set is GRE reporter plasmid. To be noted: T cells; cited from earlier work.
Another data set has as its system NFAT. The note with it: cited from earlier work.
The next data set has as its system NFkB and AP1. The note with it: cited from earlier work.
The test system of a further data set is p38 and JNK. The note with it: cited from earlier work.
In another data set the test system is ERK. The note with it: cited from earlier work.
For another data set, the system named is TNF-α. To be noted: acute in vivo model; component alone (prednisolone at reduced dose); cited from earlier work.
For another data set, the system named is joint swelling. To be noted: chronic / adjuvant model; component alone (prednisolone at reduced dose); cited from earlier work.
The test system of the next data set is AP-1. The data set is described as follows: IL-1 induced AP-1 DNA binding activity, gel mobility shift assay. It is filed as cell-based. To be noted: chondrocyte nuclear lysates, pretreated with paclitaxel 10^−7 to 10^−5 M for 24 hours.
The next data set deals with collagenase-1 (MMP-1). As to the kind of experiment: IL-1 induced MMP-1 (collagenase) mRNA expression in chondrocytes, Northern blot. It is filed as cell-based. As for the experimental part:
(§2) Cells were treated with paclitaxel at various concentrations (10^−7 to 10^−5 M) for 24 hours, then treated with IL-1β (20 ng/ml) for additional 18 hours in the presence of paclitaxel. Total RNA was isolated, and the MMP-1 mRNA levels were determined by Northern blot analysis. The blots were subsequently stripped and reprobed with ^32P-radiolabeled rat GAPDH cDNA, which was used as a housekeeping gene. […] Quantitation of collagenase-1 and stromelysin-expression mRNA levels was conducted. The MMP-1 and MMP-3 expression levels were normalized with GAPDH.

The subject of a further data set is stromelysin (MMP-3). The data set is described as follows: IL-1 induced MMP-3 (stromelysin) mRNA expression in chondrocytes, Northern blot. The data set is classed as cell-based. As for the experimental part: as §2
Data set [4] concerns Primary human smooth muscle cells. As to the kind of experiment: Smooth muscle cell migration assay (Boyden chamber, rhPDGF-BB chemotaxis). The data set is classed as cell-based. To be noted: chemotaxis in response to rhPDGF-BB 10 ng/ml, 4 hours.
Procedure: Primary human smooth muscle cells were starved of serum in smooth muscle cell basal media containing insulin and human basic fibroblast growth factor (bFGF) for 16 hours prior to the assay. For the migration assay, cells were trypsinized to remove cells from flasks, washed with migration media and diluted to a concentration of 2-2.5×10^5 cells/ml in migration media. […] A 100 μL volume of smooth muscle cells (approximately 20,000-25,000 cells) was added to the top of a Boyden chamber assembly (Chemicon QCM CHEMOTAXIS 96-well migration plate). To the bottom wells, the chemotactic agent, recombinant human platelet derived growth factor (rhPDGF-BB) was added at a concentration of 10 ng/ml in a total volume of 150 μL. […] Plates were incubated for 4 hours to allow cell migration.
At the end of the 4-hour period, cells in the top chamber were discarded and the smooth muscle cells attached to the underside of the filter were detached for 30 minutes at 37° C. in Cell Detachment Solution (Chemicon). […] Relative fluorescence units from triplicate wells were averaged after subtracting background fluorescence (control chamber without chemoattractant) and average number of cells migrating was obtained from a standard curve of smooth muscle cells serially diluted from 25,000 cells/well down to 98 cells/well.
Data set [5] deals with protein tyrosine phosphatase 1B (PTP1B) (Homo sapiens, UniProt P18031). To be noted: cited from earlier work.
protein tyrosine phosphatase 1B (PTP1B), sequence (P18031 whole entry): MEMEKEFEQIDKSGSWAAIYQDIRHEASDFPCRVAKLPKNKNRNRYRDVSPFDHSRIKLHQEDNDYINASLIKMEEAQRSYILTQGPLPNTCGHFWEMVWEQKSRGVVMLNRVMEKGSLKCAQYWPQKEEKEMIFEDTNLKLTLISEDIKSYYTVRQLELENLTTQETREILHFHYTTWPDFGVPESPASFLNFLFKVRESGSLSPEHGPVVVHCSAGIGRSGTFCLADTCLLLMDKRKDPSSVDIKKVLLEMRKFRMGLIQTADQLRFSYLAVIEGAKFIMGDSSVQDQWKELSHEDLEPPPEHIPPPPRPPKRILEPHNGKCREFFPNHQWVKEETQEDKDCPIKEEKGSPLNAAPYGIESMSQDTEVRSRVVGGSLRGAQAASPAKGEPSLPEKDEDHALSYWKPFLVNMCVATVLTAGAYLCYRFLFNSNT
Data set [6] relates to phosphatases of regenerating liver (PRL). To be noted: cited from earlier work.
In another data set the test system is endo-exonuclease. To be noted: cited from earlier work.
Data set [7] deals with Candida spp., Aspergillus spp., Sporothrix schenckii, Penicillium marneffei, Malassezia furfur, Cryptococcus neoformans, Trichosporon spp. and …. To be noted: against most Candida spp., Aspergillus spp. and other listed fungi; cited from earlier work.
Where [8] appears, read: 10^−5 M paclitaxel, 24 hours pretreatment.
Setting [9] is: chondrocytes pretreated with paclitaxel for 24 hours.

Procedure for AP-1: Binding activity was assayed with a radiolabeled human AP-1 sequence probe and gel mobility shift assay. Extracts from chondrocytes untreated or treated with various amounts of paclitaxel (10^−7 to 10^−5 M) followed by IL-1β (20 ng/ml) were incubated with excess probe on ice for 30 minutes, followed by non-denaturing gel electrophoresis. The “com” lane contains excess unlabeled AP-1 oligonucleotide.

With `CCC(C)n1ncn(-c2ccc(N3CCN(c4ccc(OC[C@H]5CO[C@](Cn6cncn6)(c6ccc(Cl)cc6Cl)O5)cc4)CC3)cc2)c1=O` (mixture of isomers) [itraconazole], in the data set on C. glabrata, the “anti-fungal activity against C. glabrata in combination with a manganese compound” value (from here on “anti-fungal activity against C. glabrata”) is on record as “enhances”. Regarding `CC(=O)N1CCN(c2ccc(OC[C@@H]3CO[C@@](Cn4ccnc4)(c4ccc(Cl)cc4Cl)O3)cc2)CC1` (racemic) [ketoconazole], the “solubility, in words” value in data set [1] is reported as “essentially insoluble in water”. Turning to `O=c1[nH]cc(F)c(=O)[nH]1` [5-fluorouracil], the MIC in [2] was 10 µM (≈ 1.3 µg/mL); in the data set on S. aureus ATCC25923 C622 it was 0.1 µM (≈ 0.013 µg/mL); with S. epidermidis C621, 0.1 µM (≈ 0.013 µg/mL); with S. pyogenes C721, 100 µM (≈ 13 µg/mL). `[F][Al]([F])[F]` [AIF3]: the “lowest concentration that prevented IL-1-induced collagenase expression” value with collagenase stood at 100 nM.

`C[C@@H]1[C@H](O)[C@@H](C)/C=C/C=C/C=C/C=C/C=C/C=C/C=C/[C@H](O[C@@H]2O[C@H](C)[C@@H](O)[C@H](N)[C@@H]2O)C[C@@H]2O[C@](O)(C[C@@H](O)C[C@@H](O)[C@H](O)CC[C@@H](O)C[C@@H](O)CC(=O)O[C@H]1C)C[C@H](O)[C@H]2C(=O)O` [Amphotericin B, amphotericin B]: the “solubility, in words” value in [1] was “poorly water soluble”. Also, the stability in solution result in data set [3] was “unstable in solution”. On to `CN(C)/N=N/c1[nH]cnc1C(N)=O` [Dacarbazine, dacarbazine], for which the “solubility, in words” value in data set [1] was “poorly soluble in water and ethanol”. For `N#CC1=C(N)Oc2c(ccc3ccccc23)C1c1cccc([N+](=O)[O-])c1` (stereo not shown) [LY290181], the “lowest concentration that prevented IL-1-induced collagenase expression” value in the data set with collagenase was 100 nM. On to `COc1c2occc2cc2ccc(=O)oc12` [Methoxsalen, methoxsalen], for which, in data set [1], the “solubility, in words” value was “very poorly soluble in water, slightly soluble in alcohol, and readily soluble in propylene glycol”. As to `N=C(N)c1ccc(OCCCCCOc2ccc(C(=N)N)cc2)cc1` [Pentamidine isethionate, pentamidine isethionate], the “solubility, in words” value in [1] was “soluble in water and glycerin and insoluble in ether, acetone, and chloroform”.

For `C[N+]1(CCCCC[N+]2(C)CCCC2)CCCC1` [Pentolinium ditartrate, pentolinium], the “solubility, in words” value in [1] is on record as “highly soluble in water”. With `Nc1ccc(/N=N/c2ccccc2)c(N)n1` [Phenazopyridine base, phenazopyridine], in data set [1], the “solubility, in words” value is “slightly soluble in water and alcohol”. Turning to `NNCCc1ccccc1` [Phenelzine, phenelzine], the “solubility, in words” value in data set [1] was “highly soluble in water and very poorly soluble in alcohol”. For the compound `NC(=O)c1ncn([C@@H]2O[C@H](CO)[C@@H](O)[C@H]2O)n1` [Ribavirin, ribavirin], in [1], the “solubility, in words” value is recorded as “only slightly soluble in alcohol”. On to `Clc1ccc2c(c1)C(N1CCNCC1)=Nc1ccccc1O2` [amoxapine], for which the “potentiation of prednisolone's ability to transactivate a GRE reporter plasmid” value in the data set with GRE reporter plasmid is listed as “does not potentiate”. Further, the “effect on NFAT activation, translocation and transactivation” value in the data set with NFAT is “block”. Further, the “effect on NFkB and AP1 activation” value in the data set on NFkB and AP1 is on record as “partially inhibits”. Further, the “effect on p38 and JNK activation” value in the data set with p38 and JNK is reported as “Inhibition”. Further, the “effect on ERK activation” value in the data set with ERK was “unaffected”. In the data set on TNF-α, the “effect of the individual components alone on TNF-α production” value is “modest or no benefit”. Besides, the “effect of the individual components alone on joint swelling” value in the data set on joint swelling is recorded as “modest or no benefit”. Take `CC[C@@]1(O)C(=O)OCc2c1cc1n(c2=O)Cc2cc3ccccc3nc2-1` [camptothecin]: the MIC in the data set on S. epidermidis C621 amounted to 100 µM (≈ 34.8 µg/mL).

`CC[C@H](C)C[C@H](C)CCCCCCCCC(=O)N[C@H]1C[C@@H](O)[C@@H](NCCN)NC(=O)[C@@H]2[C@@H](O)CCN2C(=O)[C@H]([C@H](O)CCN)NC(=O)[C@H]([C@H](O)[C@@H](O)c2ccc(O)cc2)NC(=O)[C@@H]2C[C@@H](O)CN2C(=O)[C@H]([C@@H](C)O)NC1=O` [caspofungin]: the “anti-fungal activity against C. glabrata” value in the data set with C. glabrata was “enhances”. Take `[2H]O[2H]` [deuterium oxide]: the “lowest concentration that prevented IL-1-induced collagenase expression” value with collagenase is 100 nM. As to `OC(Cn1cncn1)(Cn1cncn1)c1ccc(F)cc1F` [fluconazole], the “anti-fungal activity against C. glabrata” value in the data set with C. glabrata is “enhances”.

With `CCOC(=O)CN` [glycine ethyl ester], the “lowest concentration that prevented IL-1-induced collagenase expression” value with collagenase came out at 100 nM. As to `CC(=O)O[C@H]1C(=O)[C@@]2(C)[C@H]([C@H](OC(=O)c3ccccc3)[C@]3(O)C[C@H](OC(=O)[C@H](O)[C@@H](NC(=O)c4ccccc4)c4ccccc4)C(C)=C1C3(C)C)[C@]1(OC(C)=O)CO[C@@H]1C[C@@H]2O` [paclitaxel], the “IL-1 induced AP-1 binding activity to oligonucleotides” value with AP-1 is given as “decreased”. The results for the “collagenase mRNA levels (IL-1 induced)” value in the data set with collagenase-1 (MMP-1) (setting [8]) and in the data set on collagenase-1 (MMP-1) (setting [9]) were “complete inhibition” and “significantly reduced”, respectively. In the data set with collagenase-1 (MMP-1) (chondrocytes, IL-1 induced), the “concentration inhibiting collagenase expression in vitro” value is on record as 10^−6 M. The “stromelysin mRNA levels (IL-1 induced)” value with stromelysin (MMP-3) (setting [8]) is “complete inhibition”; in the data set with stromelysin (MMP-3) (setting [9]), “significantly reduced”. Also, the “concentration inhibiting stromelysin expression in vitro” value in the data set on stromelysin (MMP-3) (chondrocytes, IL-1 induced) was 10^−6 M. In addition, 760 pM corresponded to half-maximal inhibition in data set [4] (IC50). `N=C(N)c1ccc(OCCCCCOc2ccc(C(=N)N)cc2)cc1` [pentamidine]: in [5], the “inhibition of protein tyrosine phosphatase 1B (PTP1B)” value is recorded as “effective inhibitor”. The “inhibition of the oncogenic phosphatases of regenerating liver (PRL)” value in data set [6] was “potent inhibitor”. Further, the “inhibition of the activity of endo-exonuclease” value in the data set with endo-exonuclease is listed as “inhibit”. As to `CN(C/C=C/C#CC(C)(C)C)Cc1cccc2ccccc12.Cl` [terbinafine], the “anti-fungal activity against C. glabrata” value with C. glabrata is given as “enhances”. Besides, in data set [7], the “in vitro anti-fungal activity” value is on record as “has activity”. For `Nc1ncnc2c1ccn2[C@@H]1O[C@H](CO)[C@@H](O)[C@H]1O` [tubercidin], in the data set on collagenase, the “lowest concentration that prevented IL-1-induced collagenase expression” value was 100 nM. On the same count and under the same terms, for epothilone the value was 100 nM; for “ethylene glycol bis-(succinimidylsuccinate)”, 100 nM; for hexylene glycol, 100 nM.

Usually IC50 stands for the midpoint of a concentration-inhibition curve.
